The values below come from patent publication US10344019B2 (priority 2010, dated 2019).

pEC50: −log10 of the molar value. Read-outs that look alike come from different tables or passages of the source.

Format in all cases: cell-based
The subject of test [1] is HCV 1a RLuc cells (dicistronic genotype 1a H77 replicon, RLuc reporter). Kind of test: microbe, parasite or virus in culture. The following applies: Hepatitis C virus, read-out: 1a. In short, it runs like this: (§1)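 Replicon cells stably carrying the listed RLuc-encoding dicistronic replicons were seeded and treated with DMSO serial dilutions of compound (10 mM stocks) diluted into culture medium. After 72 h, cells were lysed and Renilla luciferase activity measured. EC50 was derived by non-linear regression.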

Test [2] relates to HCV 1b RLuc cells (dicistronic genotype 1b Con1 replicon, RLuc reporter). The test can be described thus: microbe, parasite or virus in culture. The note with it: Hepatitis C virus, read-out: 1b (nM). In short, it runs like this: as §1
Test [3] deals with HCV 2a JFH-1 Rluc cells (dicistronic genotype 2a JFH-1 replicon, RLuc reporter). The test can be described thus: microbe, parasite or virus in culture. The following applies: Hepatitis C virus, read-out: 2a JFH. The gist of the method:
as §1

Test [4] concerns HCV 2b Rluc cells (NS5A chimeric genotype 2a JFH-1 replicon with genotype 2b MD2b-1 NS5A gene, M31 present). The test can be described thus: microbe, parasite or virus in culture. The note with it: Hepatitis C virus, read-out: 2b. The gist of the method: as §1
In test [5] the test system is HCV 3a RLuc cells (NS5A chimeric genotype 1b Con1 replicon with consensus genotype 3a NS5A gene). Kind of test: microbe, parasite or virus in culture. The following applies: Hepatitis C virus. The gist of the method:
as §1

Test [6] has as its system HCV 4a Rluc cells (NS5A chimeric genotype 1b Con1 replicon with genotype 4a NS5A gene). The test can be described thus: microbe, parasite or virus in culture. The note with it: Hepatitis C virus, read-out: 4a. The gist of the method:
as §1

Test [7] deals with HCV 2a Rluc cells (NS5A chimeric genotype 2a JFH-1 replicon with genotype 2a J6 strain NS5A gene, M31 present). The test can be described thus: HCV replicon reporter assay, genotype 2a J6 (M31 present). The following applies: Hepatitis C virus, read-out: 2a J6. In short, it runs like this:
as §1
In general terms: In antiviral work, replicon cells carry a viral genome segment that copies itself.

The mark [8] stands for this setting: genotype 2a JFH-1 RLuc replicon.
The mark [9] stands for this setting: read-out: 3a, genotype 3a NS5A chimeric replicon.
[10] abbreviates: read-out: 3a, genotype 3a replicon.

`COC[C@H]1C[C@@H](c2nc3ccc4cc(-c5ccc6c(ccc7nc([C@@H]8CCCN8C(=O)[C@H](NC(=O)C8CC8)c8ccccc8)[nH]c76)c5)ccc4c3[nH]2)N(C(=O)[C@@H](NC(=O)OC)C(C)C)C1` [Example 512]: the pEC50 in test [1] (genotype 1a H77 RLuc replicon), in test [3] (setting [8]), in test [4], in test [5] (setting [9]), in test [6] and in test [7] was 9.00 to 12.00 each time. The EC50 in test [2] was determined as 0.035 nM.

Regarding `COC(=O)N[C@H](C(=O)N[C@@H](C(=O)N1CCC[C@H]1c1ncc(-c2cc3c4c(c2)OCc2cc(-c5cnc([C@@H]6CCCN6C(=O)[C@H](NC(=O)[C@@H](NC(=O)OC)C(C)C)c6ccccc6)[nH]5)cc(c2-4)OC3)[nH]1)c1ccccc1)C(C)C` [Example 483], the pEC50 in test [1] (genotype 1a replicon) was 7.36 to 9.00; in test [3] (genotype 2a JFH-1 replicon) it was 9.00 to 12.00; in test [4], 9.00 to 12.00; in test [5] (setting [10]), 9.00 to 12.00; in test [6] it was 9.00 to 12.00; in test [7], less than 7.36. Besides, the EC50 in test [2] is 0.814 nM.

In the case of `COC[C@H]1C[C@@H](c2nc3ccc4cc(-c5ccc6c(ccc7nc([C@@H]8C[C@H]9C[C@H]9N8C(=O)[C@@H](NC(=O)OC)C(C)C)[nH]c76)c5)ccc4c3[nH]2)N(C(=O)[C@H](NC(=O)OC(C)(C)C)c2ccccc2)C1` [Example 497], the pEC50 in test [1] (genotype 1a H77 RLuc replicon), in test [3] (setting [8]), in test [4], in test [5] (setting [9]), in test [6] and in test [7] was 9.00 to 12.00 each time. Moreover, the EC50 in test [2] came out at 0.008 nM.

Regarding `COC1CN(C(C(=O)N2CCC[C@H]2c2ncc(-c3cc4c5c(c3)OCc3cc(-c6cnc([C@@H]7CCCN7C(=O)C(c7ccccc7)N7CC(OC)C7)[nH]6)cc(c3-5)OC4)[nH]2)c2ccccc2)C1` (some centres unmarked) [Example 444], the pEC50 in test [1] (genotype 1a replicon) is 7.36 to 9.00; in test [3] (genotype 2a JFH-1 replicon), 9.00 to 12.00; in test [4], 7.36 to 9.00; in test [5] (setting [10]), 9.00 to 12.00; in test [6], 8.30 to 9.00; in test [7], 7.36 to 9.00. In test [2], the EC50 was found to be 1.76 nM.

With `COC(=O)N[C@H](C(=O)N1CCC[C@H]1c1nc2ccc3cc(-c4ccc(-c5cnc([C@@H]6CCCN6C(=O)[C@H](NC(=O)OC)c6ccccc6)[nH]5)cc4C#Cc4ccccc4)ccc3c2[nH]1)C(C)C` [Example 439], the pEC50 in test [1] (genotype 1a replicon) was 9.00 to 12.00; in test [3] (genotype 2a JFH-1 replicon) it was 9.00 to 12.00; in test [4], less than 7.36; in test [5] (setting [10]) it was 9.00 to 12.00; in test [6] it was 9.00 to 12.00; in test [7] it was 7.36 to 9.00. The EC50 in test [2] was 0.004 nM.

In the case of `COC(=O)N[C@@H](C(=O)N1[C@@H](C)CC[C@H]1c1ncc(-c2cc3c4c(c2)OCc2cc(-c5cnc([C@@H]6CC[C@H](C)N6C(=O)[C@H](NC(=O)OC)c6ccccc6)[nH]5)cc(c2-4)OC3)[nH]1)c1ccccc1` [Example 461], the pEC50 in test [1] (genotype 1a replicon) is 9.00 to 12.00; in test [3] (genotype 2a JFH-1 replicon) it was 9.00 to 12.00; in test [4] it was 9.00 to 12.00; in test [5] (setting [10]), 9.00 to 12.00; in test [6] it was 9.00 to 12.00; in test [7], 7.36 to 9.00. In addition, the EC50 in test [2] came out at 0.02 nM.

For the molecule `COC(=O)N[C@H](C(=O)N1CCC[C@H]1c1ncc(-c2ccc3c(c2)COc2cc4c(ccc5nc([C@@H]6C[C@H]7C[C@H]7N6C(=O)[C@@H](NC(=O)OC)C(C)C)[nH]c54)cc2-3)[nH]1)C(C)C` [Example 518], the pEC50 in test [1] (genotype 1a H77 RLuc replicon) is 9.00 to 12.00; in test [3] (setting [8]) it was 9.00 to 12.00; in test [4], 9.00 to 12.00; in test [5] (setting [9]), 9.00 to 12.00; in test [6], 9.00 to 12.00; in test [7], 7.36 to 9.00. Besides, the EC50 in test [2] came out at 0.01 nM.

`CC(C)[C@@H](C(=O)N[C@@H](C(=O)N1CCC[C@H]1c1ncc(-c2cc3c4c(c2)OCc2cc(-c5cnc([C@@H]6CCCN6C(=O)[C@H](NC(=O)[C@H](C(C)C)N(C)C)c6ccccc6)[nH]5)cc(c2-4)OC3)[nH]1)c1ccccc1)N(C)C` [Example 484]: the pEC50 is less than 7.36 in test [1] (genotype 1a replicon); 9.00 to 12.00 in test [3] (genotype 2a JFH-1 replicon); less than 7.36 in test [4]; 9.00 to 12.00 in test [5] (setting [10]); 9.00 to 12.00 in test [6]; less than 7.36 in test [7]. For the same molecule, in test [2], the EC50 amounted to 0.953 nM.

In the case of `COC(=O)N[C@H](C(=O)N1CCC[C@H]1c1ncc(-c2ccc3c(c2)COc2c-3ccc3c2ccc2nc([C@@H]4CCCN4C(=O)[C@@H](NC(=O)OC)C(C)C)[nH]c23)[nH]1)C(C)C` [Example 400], the pEC50 in test [1] (genotype 1a replicon) is 9.00 to 12.00; in test [3] (genotype 2a JFH-1 replicon), 9.00 to 12.00; in test [4], less than 7.36; in test [5] (setting [10]), 9.00 to 12.00; in test [6], 9.00 to 12.00; in test [7], less than 7.36. The EC50 in test [2] stood at 0.017 nM.

Regarding `COC(=O)N[C@H](C(=O)N1CCC[C@H]1c1ncc(-c2ccc3c4c(ccc3c2)-c2ccc(-c3cnc([C@@H]5CCCN5C(=O)[C@H](NC(=O)OC)c5ccccc5)[nH]3)cc2CO4)[nH]1)C1CCOCC1` [Example 13], the pEC50 was 9.00 to 12.00 in test [1] (72 h, Table 1, genotype 1a H77 replicon, 72 hours); 9.00 to 12.00 in test [3] (72 h, Table 1, genotype 2a JFH-1 replicon, 72 hours); 9.00 to 12.00 in test [4]; 9.00 to 12.00 in test [5] (read-out: 3a, Table 1, genotype 3a NS5A chimeric replicon); 9.00 to 12.00 in test [6]; 7.36 to 9.00 in test [7]. Also, in test [2] (72 h), the EC50 is 0.015 nM.

`COC(=O)N[C@H](C(=O)N1CCC[C@H]1c1nc2ccc3cc(-c4ccc5c(ccc6nc([C@@H]7C[C@H](COC(F)F)CN7C(=O)[C@@H](NC(=O)OC)C(C)C)[nH]c65)c4)ccc3c2[nH]1)C(C)C` [Example 514]: the pEC50 in test [1] (genotype 1a H77 RLuc replicon), in test [3] (setting [8]), in test [4], in test [5] (setting [9]), in test [6] and in test [7] was 9.00 to 12.00 in each case. In test [2], the EC50 came to 0.01 nM.

On to `COC[C@H]1C[C@@H](c2ncc(-c3ccc(-c4ccc(-c5cnc([C@@H]6C[C@H](SC)CN6C(=O)[C@@H](NC(=O)OC)C(C)C)[nH]5)cc4)cc3)[nH]2)N(C(=O)[C@H](NC(=O)C2CC2)c2ccccc2)C1` [Example 570], for which the pEC50 in test [1] (genotype 1a H77 RLuc replicon), in test [3] (setting [8]), in test [4], in test [5] (setting [9]), in test [6] and in test [7] was 9.00 to 12.00 throughout. Further, in test [2], the EC50 stood at 0.033 nM.

As to `COC(=O)N[C@H](C(=O)N1C[C@@H](C)C[C@H]1c1ncc(-c2cc3c4c(c2)OCc2cc(-c5cnc([C@@H]6C[C@H](C)CN6C(=O)[C@H](NC(=O)OC)c6ccccc6)[nH]5)cc(c2-4)OC3)[nH]1)C(C)C` [Example 564], the pEC50 in test [1] (genotype 1a H77 RLuc replicon) is 9.00 to 12.00; in test [3] (setting [8]), 9.00 to 12.00; in test [4], 9.00 to 12.00; in test [5] (setting [9]), 9.00 to 12.00; in test [6] it was 9.00 to 12.00; in test [7], 7.36 to 9.00. Besides, the EC50 in test [2] was determined as 0.012 nM.

For the molecule `COC(=O)N[C@H](C(=O)N1CC2(C[C@H]1c1nc3ccc4cc(-c5ccc6c(ccc7nc([C@@H]8CCCN8C(=O)[C@H](NC(=O)OC)c8ccccc8)[nH]c76)c5)ccc4c3[nH]1)OCCO2)C(C)C` [Example 323], the pEC50 in test [1] (genotype 1a replicon), in test [3] (genotype 2a JFH-1 replicon), in test [4], in test [5] (setting [10]), in test [6] and in test [7] was 9.00 to 12.00 in each case. The EC50 in test [2] was found to be 0.043 nM.
